From patent publication US20180305424A1, “Methods of Inducibly Targeting Chromatin Effectors and Compositions for Use in the Same” (The Board of Trustees of the Leland Stanford Junior …, priority 2015, published 2018) come the findings set out here.

Assay type in all cases: cell-based, mouse
The subject of experiment [1] is BAF complex recruitment to the modified Oct4 (Pou5f1) locus in CiA MEF cells. The experiment is described as follows: Recruitment assay (ON): rapamycin-induced BAF complex recruitment to the CiA Oct4 locus, ChIP-qPCR. The conditions noted are these: 24 hours of rapamycin treatment (3 nM); Frb-V5-tagged BAF subunit fusions; CiA MEFs. The source says:
CiA mouse embryonic fibroblasts (MEFs) containing a modified Oct4 promoter (with 12×ZFHD1 and 6×GAL4 sites upstream of the promoter) were generated, cultured and maintained as previously described (Hathaway et al., “Dynamics and memory of heterochromatin in living cells,” Cell (2012) 149:1447-1460). Briefly, lentiviral delivery constructs bearing an EF1-alpha promoter and either puromycin or blasticidin resistance were generated to contain the constructs described here (FIG. 1a). To generate recruitable forms of BAF complexes, individual subunits (SS18, BRG, BAF47, BAF57) were N-terminally fused to Frb-V5. […]
Briefly, for rapid time course assays, adherent CiA MEF cells were washed once in PBS, scraped off plates into fix buffer (50 mM HEPES, 1 mM EDTA, 0.5 mM EGTA, and 100 mM NaCl), resuspended, and immediately formaldehyde fixed. […] Chromatin input was reverse crosslinked and evaluated for shearing efficiency and 100-150 μg of chromatin stock was used per immunoprecipitation reaction. […]
(§1) CiA knock-in locus-specific primers were generated with plus (+) and minus (−) direction distances calculated from the middle of the ZFHD1 recruitment domain as well as […] distances calculated from the Oct4 transcription start site (TSS). Briefly, enrichment (bound over input) averages and standard deviations were calculated over n=5 repeat experiments for each primer set. […]
In general terms: Quantitative PCR measures a nucleic acid by following its amplification.

The subject of experiment [2] is DNA accessibility at the Oct4 locus in CiA Oct4 MEF cells. The experiment is described as follows: Transposase (Tn5) chromatin accessibility assay after FK1012 addition. The conditions noted are these: post-addition of FK1012 (removal of the BAF complex). How it is done: Following various recruitment conditions, 5×10̂4 CiA Oct4 MEF cells were harvested, washed once in PBS, once in RSB buffer (10 mM Tris-HCl, pH 7.4, 10 mM NaCl, 3 mM MgCl2), and centrifuged at 500×g for 5 minutes at 4 degrees C. Cells were then lysed in lysis buffer (500 ul RSB buffer+5 ul 10% NP-40) for 5 minutes on ice, spun at 500×g for 5 minutes, resuspended in Tagment DNA/Enzyme Buffer Mix (Illumina Nextera Sample Preparation Kit, Cat. # FC-121-1030), and incubated for 30 minutes at 37° C. Following Tn5 transposase enzyme reaction, DNA was purified using Quiagen MinElute PCR Purification Kit (Cat #28004). Transposed DNA fragments were amplified via qPCR to the appropriate number of cycles and library was purified using a Quiagen PCR Cleanup Kit eluted in 20 ul of elution buffer (10 mM Tris Buffer, pH 8.0). CiA locus-specific qPCR was performed using primers in Supplemental Table 2.

The subject of experiment [3] is BAF complex tethering to the Oct4 locus in CiA MEF cells. Kind of experiment: OFF/washout experiments: FK1012 competition of rapamycin-tethered BAF complexes, ChIP-qPCR. On the procedure:
Briefly, adherent CiA MEF cells were treated with 3 nM (final) rapamycin (sirolimus; Sellekchem #S1039) (ON experiments) or 3 nM rapamycin followed by 30 nM FK1012 (OFF/washout experiments) for prescribed times (2.5 minutes-24 hours). For acute time points, cells were harvested rapidly by washing media out once with PBS, scraping cells off plates with a cell scraper, resuspending in CiA fix buffer, and formaldehyde fixing for subsequent ChIP analyses.
Briefly, for rapid time course assays, adherent CiA MEF cells were washed once in PBS, scraped off plates into fix buffer (50 mM HEPES, 1 mM EDTA, 0.5 mM EGTA, and 100 mM NaCl), resuspended, and immediately formaldehyde fixed. After cross-linking, cells (7-10×10̂6) were washed and sonicated for 13.5 minutes using a Covaris E220 Sonicator (Covaris, Inc., Woburn, Mass.). Chromatin input was reverse crosslinked and evaluated for shearing efficiency and 100-150 μg of chromatin stock was used per immunoprecipitation reaction. […]
as §1

Several values for one entry are separate records, joined by “and”; a condition that tells them apart may be missing. Equal values may be shown once.

For `CO[C@H]1C[C@@H]2CC[C@@H](C)[C@@](O)(O2)C(=O)C(=O)N2CCCC[C@H]2C(=O)O[C@H]([C@H](C)C[C@@H]2CC[C@@H](O)[C@H](OC)C2)CC(=O)[C@H](C)/C=C(\C)[C@@H](O)[C@@H](OC)C(=O)[C@H](C)C[C@H](C)/C=C/C=C/C=C/1C` [rapamycin], the “BAF complex recruitment (fold enrichment over baseline by ChIP-qPCR)” value in experiment [1] was 20-40 fold and 40-60 fold.

Consider FK1012, for which, in experiment [2], the “Time at which inaccessible chromatin began to reform” value was in the range of 2.5 to 5 h. In addition, in experiment [3] (3 nM rapamycin followed by 30 nM FK1012), the “Decrease in BAF complex tethering to the Oct4 locus, FK1012 addition versus rapamycin washout (media change)” value is recorded as “more rapid, robust decreases”. Also, the “Time at which PRC2 (Ezh2) and PRC1 (Ring1B) began to reappear” value in experiment [3] (post-addition of FK1012, paralleled by reappearance of H3K27Me3 and H2AUb1) was about 2 h.
